# Molecular target: IgE-Tb / sFcεRIα-Y131A-AF488 (Homo sapiens, UniProt P01854, N146Q/N252Q)
# Assay: IgE-Tb / sFcεRIα-Y131A-AF488 FRET assay (protocol for examples 234 to 501)
# Assay type: binding
# Details: examples 234 to 501: compound with IgE-Tb 30 minutes before sFcεRIα-Y131A-AF488, incubated 18 hours at room temperature; read-out: Y131A FRET IC50 range
# Procedure, shortened: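 Read-out is the 520/490 nm emission ratio (337 nm excitation) after 18 h at room temperature, background subtracted, fitted four-parameter for IC50. Final reagents: 5 nM IgE-Tb, preincubated 30 min with compound (top typically 10 μM, 2% DMSO, 3-fold 10-point), plus 25 nM sFcεRIα-Y131A-AF488.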
# Sequence of IgE-Tb / sFcεRIα-Y131A-AF488 (P01854 whole entry N146Q/N252Q): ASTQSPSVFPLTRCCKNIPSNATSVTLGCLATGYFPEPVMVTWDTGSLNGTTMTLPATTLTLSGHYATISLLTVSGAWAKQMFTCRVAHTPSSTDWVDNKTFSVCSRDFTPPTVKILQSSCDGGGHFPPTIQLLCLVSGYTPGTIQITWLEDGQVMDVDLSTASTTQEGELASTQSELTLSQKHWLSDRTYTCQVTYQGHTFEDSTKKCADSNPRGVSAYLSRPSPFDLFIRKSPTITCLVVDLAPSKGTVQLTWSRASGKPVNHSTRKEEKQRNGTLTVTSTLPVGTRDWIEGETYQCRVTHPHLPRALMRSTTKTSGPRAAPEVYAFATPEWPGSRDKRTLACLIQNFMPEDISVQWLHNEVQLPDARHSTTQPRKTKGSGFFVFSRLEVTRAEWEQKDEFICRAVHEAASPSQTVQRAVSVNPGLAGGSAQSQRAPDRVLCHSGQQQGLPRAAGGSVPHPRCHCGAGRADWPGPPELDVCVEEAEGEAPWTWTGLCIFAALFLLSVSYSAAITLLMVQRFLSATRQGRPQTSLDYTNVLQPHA
row,SMILES,IC50 [µM]
1,"Cn1nc(OC(F)F)cc1Nc1nncn1[C@H]1CCc2sc(NC(=O)[C@H]3C[C@@H]3F)c(C(=O)NC[C@H]3C[C@@H](F)C3)c2C1 (single isomer, unassigned) [Example 377]",< 1
2,"Cn1nc(OC(F)F)cc1Nc1nncn1[C@H]1CCc2sc(NC(=O)[C@H]3C[C@@H]3F)c(C(=O)NC[C@H]3C[C@H](F)C3)c2C1 (single isomer, unassigned) [Example 378]",< 1
3,"Cn1nc(OC(F)F)cc1Nc1nncn1[C@H]1CCc2sc(NC(=O)[C@H]3C[C@@H]3F)c(C(=O)N[C@H]3C[C@H](F)C3)c2C1 (single isomer, unassigned) [Example 379]",< 1
4,"Cn1nc(C(F)F)cc1Nc1nncn1[C@H]1CCc2sc(NC(=O)C3CC3)c(C(=O)NC[C@H]3CC3(F)F)c2C1 (single isomer, unassigned) [Example 382]",< 1
5,"Cn1nc(C(F)F)cc1Nc1nncn1[C@H]1CCc2sc(NC(=O)C3CC3)c(C(=O)NC[C@@H]3CC3(F)F)c2C1 (single isomer, unassigned) [Example 383]",< 1
6,"Cn1nc(C(F)F)cc1Nc1nncn1[C@H]1CCc2sc(NC(=O)C3CC3)c(C(=O)NC[C@@H]3CC34CC4)c2C1 (single isomer, unassigned) [Example 385]",< 1
7,"Cn1nc(C(F)F)cc1Nc1nncn1[C@H]1CCc2sc(NC(=O)C3CC3)c(C(=O)NC[C@H]3CC34CC4)c2C1 (single isomer, unassigned) [Example 386]",< 1
8,"Cn1nc(C(F)(F)F)cc1Nc1nncn1[C@H]1CCc2sc(NC(=O)[C@H]3C[C@H]3F)c(C(=O)N[C@@H]3CC34CC4)c2C1 (single isomer, unassigned) [Example 393]",< 1
9,"Cn1nc(C(F)(F)F)cc1Nc1nncn1[C@H]1CCc2sc(NC(=O)[C@H]3C[C@H]3F)c(C(=O)N[C@H]3CC34CC4)c2C1 (single isomer, unassigned) [Example 394]",< 1
10,"Cn1nc(C(F)(F)F)cc1Nc1nncn1[C@H]1CCc2sc(NC(=O)[C@H]3C[C@H]3F)c(C(=O)NC[C@H]3CC3(F)F)c2C1 (single isomer, unassigned) [Example 397]",< 1
11,"Cn1nc(C(F)(F)F)cc1Nc1nncn1[C@H]1CCc2sc(NC(=O)[C@H]3C[C@H]3F)c(C(=O)NC[C@@H]3CC3(F)F)c2C1 (single isomer, unassigned) [Example 398]",< 1
12,"Cn1nc(C(F)F)cc1Nc1nncn1[C@H]1CCc2sc(NC(=O)[C@H]3CC34CC4)c(C(=O)NC[C@@H]3CC3(F)F)c2C1 (single isomer, unassigned) [Example 409]",< 1
13,"Cn1nc(C(F)F)cc1Nc1nncn1[C@H]1CCc2sc(NC(=O)[C@H]3CC34CC4)c(C(=O)NC[C@H]3CC3(F)F)c2C1 (single isomer, unassigned) [Example 410]",< 1
14,"CCOC(=O)c1c(NC(=O)[C@H]2CC23CC3)sc2c1C[C@@H](n1cnnc1Nc1cc(C(F)F)nn1C)CC2 (single isomer, unassigned) [Example 417]",< 1
15,"C[C@H]1c2c(sc(NC(=O)C3CC3)c2C(=O)NCC2CC2)CC[C@@H]1n1cnnc1Nc1cc(C(F)(F)F)nn1C (single isomer, unassigned) [Example 422, (4R*,5R*)-2-(cyclopropanecarbonylamino)-N-(cyclopropylmethyl)-4-methyl-5-[3-[[2-methyl-5-(trifluoromethyl)pyrazol-3-yl]amino]-1,2,4-triazol-4-yl]-4,5,6,7-tetrahydrobenzothiophene-3-carboxamide]",< 1
16,"Cn1nc(OC(F)F)cc1Nc1nncn1[C@H]1CCc2sc(NC(=O)C3CC3)c(C(=O)NC[C@H]3CC3(F)F)c2C1 (single isomer, unassigned) [Example 459]",< 1
17,"Cn1nc(OC(F)F)cc1Nc1nncn1[C@H]1CCc2sc(NC(=O)C3CC3)c(C(=O)NC[C@@H]3CC3(F)F)c2C1 (single isomer, unassigned) [Example 460]",< 1
18,"COc1cc(Nc2nncn2[C@H]2CCc3sc(NC(=O)[C@H]4C[C@@H]4C)c(C(=O)NC[C@H]4CC4(F)F)c3C2)n(C)n1 (single isomer, unassigned) [Example 463]",< 1

# — US12018021B2 (UCB Biopharma SRL, priority 2018, dated 2024)
